According to the supplement of paper PMC10307832:

Assays:
Assay in all cases: relative viability (nuclei count vs DMSO), 5 days (fraction); higher = more cells survive
NCI-H520 = system: NCI-H520
Procedure, shortened: (§1)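 Relative viability divides the nuclei count in treated wells by that in vehicle wells. Lung cancer cell lines were seeded in 1536-well plates, dosed by pin tool the next day, and fixed and stained after 5 days in one step with final 0.05% Triton X-100, 1% formaldehyde and 1 ug/ml Hoechst. Dosing was a single drug or a fixed anchor-drug dose plus five library-drug doses (not always all listed) in √10 steps, and values are medians of duplicate plates imaged at 4×.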

NCI-H2126 = system: NCI-H2126
Procedure, shortened: as §1

NCI-H647 = system: NCI-H647
Procedure, shortened: as §1

LCLC-97TM1 = system: LCLC-97TM1
Procedure, shortened: as §1

RERF-LC-KJ = system: RERF-LC-KJ
Procedure, shortened: as §1

H3255 = system: H3255
Procedure, shortened: as §1

LC-2-ad = system: LC-2-ad
Procedure, shortened: as §1

NCI-H2087 = system: NCI-H2087
Procedure, shortened: as §1

NCI-H2347 = system: NCI-H2347
Procedure, shortened: as §1

EPLC-272H = system: EPLC-272H
Procedure, shortened: as §1

PC-14 = system: PC-14
Procedure, shortened: as §1

201T = system: 201T
Procedure, shortened: as §1

NCI-H650 = system: NCI-H650
Procedure, shortened: as §1

NCI-H1915 = system: NCI-H1915
Procedure, shortened: as §1

COR-L 105 = system: COR-L 105
Procedure, shortened: as §1

HCC-827 = system: HCC-827
Procedure, shortened: as §1

HCC-78 = system: HCC-78
Procedure, shortened: as §1

NCI-H2405 = system: NCI-H2405
Procedure, shortened: as §1

ChaGo-K-1 = system: ChaGo-K-1
Procedure, shortened: as §1

NCI-H661 = system: NCI-H661
Procedure, shortened: as §1

NCI-H1666 = system: NCI-H1666
Procedure, shortened: as §1

NCI-H23 = system: NCI-H23
Procedure, shortened: as §1

## COc1cc2nccc(Oc3ccc(NC(=O)Nc4cc(C)on4)c(Cl)c3)c2cc1OC [Tivozanib] + CS(=O)(=O)N1CCN(Cc2cc3nc(-c4cccc5[nH]ncc45)nc(N4CCOCC4)c3s2)CC1 [Pictilisib] (partner 1 µM)
NCI-H520; first compound 0.005 µM
  relative viability: 0.263
NCI-H520; first compound 0.01581 µM
  relative viability: 0.256
NCI-H520; first compound 0.05 µM
  relative viability: 0.295
NCI-H520; first compound 0.1581 µM
  relative viability: 0.242
NCI-H520; first compound 0.5 µM
  relative viability: 0.302
NCI-H2126; first compound 0.005 µM
  relative viability: 0.41
NCI-H2126; first compound 0.01581 µM
  relative viability: 0.533
NCI-H2126; first compound 0.05 µM
  relative viability: 0.489
NCI-H2126; first compound 0.1581 µM
  relative viability: 0.36
NCI-H2126; first compound 0.5 µM
  relative viability: 0.469
NCI-H647; first compound 0.005 µM
  relative viability: 0.419
NCI-H647; first compound 0.01581 µM
  relative viability: 0.438
NCI-H647; first compound 0.05 µM
  relative viability: 0.402
NCI-H647; first compound 0.1581 µM
  relative viability: 0.296
NCI-H647; first compound 0.5 µM
  relative viability: 0.227
LCLC-97TM1; first compound 0.005 µM
  relative viability: 0.206
LCLC-97TM1; first compound 0.01581 µM
  relative viability: 0.23
LCLC-97TM1; first compound 0.1581 µM
  relative viability: 0.119
LCLC-97TM1; first compound 0.5 µM
  relative viability: 0.164
RERF-LC-KJ; first compound 0.005 µM
  relative viability: 0.509
RERF-LC-KJ; first compound 0.01581 µM
  relative viability: 0.471
RERF-LC-KJ; first compound 0.05 µM
  relative viability: 0.533
RERF-LC-KJ; first compound 0.1581 µM
  relative viability: 0.356
RERF-LC-KJ; first compound 0.5 µM
  relative viability: 0.586
H3255; first compound 0.005 µM
  relative viability: 0.451
H3255; first compound 0.01581 µM
  relative viability: 0.435
H3255; first compound 0.05 µM
  relative viability: 0.538
H3255; first compound 0.1581 µM
  relative viability: 0.449
H3255; first compound 0.5 µM
  relative viability: 0.421
LC-2-ad; first compound 0.005 µM
  relative viability: 0.417
LC-2-ad; first compound 0.01581 µM
  relative viability: 0.353
LC-2-ad; first compound 0.05 µM
  relative viability: 0.263
LC-2-ad; first compound 0.1581 µM
  relative viability: 0.204
LC-2-ad; first compound 0.5 µM
  relative viability: 0.159
NCI-H2087; first compound 0.005 µM
  relative viability: 0.765
NCI-H2087; first compound 0.01581 µM
  relative viability: 1.08
NCI-H2087; first compound 0.05 µM
  relative viability: 0.851
NCI-H2087; first compound 0.1581 µM
  relative viability: 0.738
NCI-H2087; first compound 0.5 µM
  relative viability: 1.02
NCI-H2347; first compound 0.005 µM
  relative viability: 0.599
NCI-H2347; first compound 0.01581 µM
  relative viability: 0.53
NCI-H2347; first compound 0.05 µM
  relative viability: 0.846
NCI-H2347; first compound 0.1581 µM
  relative viability: 0.344
NCI-H2347; first compound 0.5 µM
  relative viability: 0.727
EPLC-272H; first compound 0.005 µM
  relative viability: 0.311
EPLC-272H; first compound 0.01581 µM
  relative viability: 0.31
EPLC-272H; first compound 0.05 µM
  relative viability: 0.326
EPLC-272H; first compound 0.1581 µM
  relative viability: 0.285
EPLC-272H; first compound 0.5 µM
  relative viability: 0.162
PC-14; first compound 0.005 µM
  relative viability: 0.631
PC-14; first compound 0.01581 µM
  relative viability: 0.604
PC-14; first compound 0.05 µM
  relative viability: 0.693
PC-14; first compound 0.1581 µM
  relative viability: 0.51
PC-14; first compound 0.5 µM
  relative viability: 0.635
201T; first compound 0.005 µM
  relative viability: 0.377
201T; first compound 0.01581 µM
  relative viability: 0.69
201T; first compound 0.05 µM
  relative viability: 0.686
201T; first compound 0.1581 µM
  relative viability: 0.588
201T; first compound 0.5 µM
  relative viability: 0.632
NCI-H650; first compound 0.005 µM
  relative viability: 0.674
NCI-H650; first compound 0.01581 µM
  relative viability: 0.866
NCI-H650; first compound 0.05 µM
  relative viability: 0.771
NCI-H650; first compound 0.1581 µM
  relative viability: 0.78
NCI-H650; first compound 0.5 µM
  relative viability: 0.77
NCI-H1915; first compound 0.005 µM
  relative viability: 0.936
NCI-H1915; first compound 0.01581 µM
  relative viability: 0.995
NCI-H1915; first compound 0.05 µM
  relative viability: 0.901
NCI-H1915; first compound 0.1581 µM
  relative viability: 0.485
NCI-H1915; first compound 0.5 µM
  relative viability: 0.742
COR-L 105; first compound 0.01581 µM
  relative viability: 0.405
COR-L 105; first compound 0.05 µM
  relative viability: 0.431
COR-L 105; first compound 0.1581 µM
  relative viability: 0.347
COR-L 105; first compound 0.5 µM
  relative viability: 0.317
HCC-827; first compound 0.005 µM
  relative viability: 0.864
HCC-827; first compound 0.01581 µM
  relative viability: 0.924
HCC-827; first compound 0.05 µM
  relative viability: 1.01
HCC-827; first compound 0.1581 µM
  relative viability: 1.24
HCC-827; first compound 0.5 µM
  relative viability: 0.982
HCC-78; first compound 0.005 µM
  relative viability: 0.188
HCC-78; first compound 0.01581 µM
  relative viability: 0.235
HCC-78; first compound 0.05 µM
  relative viability: 0.207
HCC-78; first compound 0.1581 µM
  relative viability: 0.14
HCC-78; first compound 0.5 µM
  relative viability: 0.206
NCI-H2405; first compound 0.005 µM
  relative viability: 0.34
NCI-H2405; first compound 0.01581 µM
  relative viability: 0.398
NCI-H2405; first compound 0.05 µM
  relative viability: 0.428
NCI-H2405; first compound 0.1581 µM
  relative viability: 0.312
NCI-H2405; first compound 0.5 µM
  relative viability: 0.342
ChaGo-K-1; first compound 0.005 µM
  relative viability: 0.591
ChaGo-K-1; first compound 0.01581 µM
  relative viability: 0.779
ChaGo-K-1; first compound 0.05 µM
  relative viability: 0.559
ChaGo-K-1; first compound 0.1581 µM
  relative viability: 0.388
ChaGo-K-1; first compound 0.5 µM
  relative viability: 0.504
NCI-H661; first compound 0.005 µM
  relative viability: 0.37
NCI-H661; first compound 0.01581 µM
  relative viability: 0.339
NCI-H661; first compound 0.05 µM
  relative viability: 0.55
NCI-H661; first compound 0.1581 µM
  relative viability: 0.28
NCI-H661; first compound 0.5 µM
  relative viability: 0.38
NCI-H1666; first compound 0.005 µM
  relative viability: 0.404
NCI-H1666; first compound 0.01581 µM
  relative viability: 0.393
NCI-H1666; first compound 0.05 µM
  relative viability: 0.384
NCI-H1666; first compound 0.1581 µM
  relative viability: 0.389
NCI-H1666; first compound 0.5 µM
  relative viability: 0.478
NCI-H23; first compound 0.005 µM
  relative viability: 0.443
NCI-H23; first compound 0.01581 µM
  relative viability: 0.471
NCI-H23; first compound 0.05 µM
  relative viability: 0.409
NCI-H23; first compound 0.1581 µM
  relative viability: 0.319
NCI-H23; first compound 0.5 µM
  relative viability: 0.49
